The test system of series [1] is IL-1β production in human peripheral blood mononuclear cells (PBMCs). The series is described as follows: PBMC Cellular Assay, inhibition of LPS-stimulated IL-1β production. The class given is cell-based. The following applies: mature IL-1β by ELISA, 10 ng/mL LPS overnight, 2% human AB serum. From the text: (§1) Further evidence that compounds of Formula I, II, and III are inhibitors of ICE is provided by their ability to inhibit IL-1β production in human peripheral blood mononuclear cells (PBMCs) as described herein. PBMCs are isolated from heparinized blood by centrifugation over a ficoll cushion, then washed three times with phosphate-buffered saline. PBMCs are suspended in a medium containing RPMI 1640 with glutamine, penicillin, streptomycin, and 2% human AB serum, then plated at 10^6 cells per well in 96 well flat bottom plates. PBMCs are stimulated overnight with 10 ng/mL of lipopolysaccharide (LPS, E. Coli strain 0111:B4; Calbiochem) in the presence or absence of a compound of Formula I. Medium is harvested and the level of mature IL-1β was determined using an ELISA kit from R & D Systems. Compound inhibition is assessed by determining the concentration of agent which reduces IL-1β levels by 50%. Cells were cultured for an additional four hours in the presence of 3-(4,5-dimethylthiazol-2-yl)-2,5-diphenyltetrazolium bromide (MTT) to determine viability. Compound toxicity can, therefore, be assessed by determining the concentration of agent which kills 50% of the cells (IC50).

Series [2] relates to human peripheral blood mononuclear cells (PBMCs). The series can be described thus: PBMC viability (MTT), compound toxicity. It is filed as cell-based.
Excerpt: as §1

The target in a further series is T1, Ich-2 (Caspase-4) (Homo sapiens, UniProt P49662).
T1 sequence (P49662 81-270 limits assumed): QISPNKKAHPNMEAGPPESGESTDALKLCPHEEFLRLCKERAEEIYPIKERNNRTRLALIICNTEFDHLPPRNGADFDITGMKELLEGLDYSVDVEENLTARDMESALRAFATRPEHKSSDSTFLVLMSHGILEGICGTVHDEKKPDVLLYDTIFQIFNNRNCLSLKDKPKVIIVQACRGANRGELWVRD
T1 sequence (P49662 290-377 limits assumed): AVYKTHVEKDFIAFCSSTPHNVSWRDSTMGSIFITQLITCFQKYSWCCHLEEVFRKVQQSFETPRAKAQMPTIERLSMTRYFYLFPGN
The series is described as follows: Ich-2 (Caspase-4) Colorimetric Dose-Response (IC50) Assay. It is filed as biochemical. The following applies: 64 nM enzyme, 60 μM Ac-Leu-Glu-Val-Asp-pNA. The procedure:
(§2) ICE enzyme is diluted to approximately 24 nM in HGE buffer (100 mM Hepes pH 7.5, 0.5 mM EDTA, 20% glycerol, 0.1% Bovine Serum Albumin (BSA), and activated by adding dithiothreitol (DTT) to a final concentration of 5 mM. The activated enzyme is then aliquoted into wells containing inhibitor or vehicle, and the plate is preincubated for 60 minutes at ambient temperature. Substrate (Ac--Tyr--Val--Ala--Asp--pNA) is added to each well to a final concentration of 50 μM, and plates are placed in the microtitre plate-reader thermostated to 25° C. Beginning 5 minutes after addition of substrate, absorbance (405 nm) of wells is monitored for 1 hour, and activity is calculated as the mean rate of change in absorbance during this interval.
Inhibition of Ich-2 enzyme is assayed as described above for ICE, except that enzyme is used at 64 nM, and 60 μM of the Ich-2-specific substrate Ac--Leu--Glu--Val--Asp--pNA is used instead of the ICE substrate Ac--Tyr--Val--Ala--Asp--pNA.

Series [3] addresses T2, ICE (Homo sapiens, UniProt P29466).
T2 sequence (P29466 120-297 limits assumed): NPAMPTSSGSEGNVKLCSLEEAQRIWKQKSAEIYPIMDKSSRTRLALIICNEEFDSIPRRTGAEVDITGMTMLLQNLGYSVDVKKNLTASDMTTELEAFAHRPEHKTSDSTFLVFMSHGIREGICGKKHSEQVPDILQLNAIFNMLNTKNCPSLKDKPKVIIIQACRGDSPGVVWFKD
T2 sequence (P29466 317-404 limits assumed): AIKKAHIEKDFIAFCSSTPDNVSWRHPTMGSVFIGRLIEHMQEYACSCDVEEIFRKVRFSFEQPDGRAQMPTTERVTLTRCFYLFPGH
The series is described as follows: ICE inhibition, fluorometric Ki (Ac-Tyr-Val-Ala-Asp-AMC substrate). The class given is biochemical. The following applies: 0.24 nM ICE, 15 μM Ac-Tyr-Val-Ala-Asp-AMC, reversible competitive model. The procedure: Substrate hydrolysis is monitored for 300 seconds by observing the fluorescence of released AMC using excitation at 380 nm and emission at 460 nm. Mean rates of substrate hydrolysis are evaluated by linear-regression analysis of the fluorescence vs time traces.

In series [4] the target is T2, ICE. The series is described as follows: ICE Colorimetric Dose-Response (IC50) Assay. It is filed as biochemical. As to conditions: 24 nM ICE, 60 min preincubation, 50 μM Ac-Tyr-Val-Ala-Asp-pNA, pH 7.5, 25° C. The procedure: Aliquots of each dilution are transferred to a microtitre plate in triplicate.
as §2

Series [5] in a line: PBMC viability (MTT), compound toxicity. The class given is cell-based. As to conditions: human, MTT viability, additional four hours, concentration which kills 50% of the cells, read-out: PBMC TC50.
Excerpt: as §1

One may read the IC50 as the point on the concentration scale where inhibition reaches its midpoint. A high value points to a need for much substance. The term Ki denotes the equilibrium dissociation constant of an inhibitor or competing ligand from its target. A high value points to a looser hold on the target. As for “3-(2-Sec-Butoxy-Benzenesulfonylamino)-4-Oxo-Butyric Acid [Example 27]”, the IC50 is more than 100 µM in series [1], 118 µM against Ich-2 (Caspase-4) and 35 µM at ICE [4]. The compound further had a CC50 in series [2] of more than 100 µM. The compound also yielded a Ki at ICE [3] of 3.9 µM.

`Cc1cccc(S(=O)(=O)NC(C=O)CC(=O)O)c1Oc1ccc(C(C)C)cc1` (stereo not shown) [Example 41, 3-[2-(4-Isopropylphenoxy)-3-Methylbenzenesulfonylamino]-4-Oxo-Butyric Acid]: the figures for the IC50 (in series [1] (PBMC); against Ich-2 (Caspase-4); on ICE [4]) were 45 µM, 9.2 µM and 12 µM, respectively. In addition, the CC50 in series [5] was more than 100 µM. The compound further gave an inhibitory constant (Ki) at ICE [3] of 1.5 µM.

For the compound `Cc1ccccc1Oc1c(C)cccc1S(=O)(=O)NC(C=O)CC(=O)O` (stereo not shown) [Example 42, 3-[2-(2-Methylphenoxy)-3-Methylbenzenesulfonylamino]-4-Oxo-Butyric Acid], the IC50 in series [1] (PBMC) came to 38 µM; against Ich-2 (Caspase-4), 57 µM; at ICE [4], 1.1 µM. For the same compound, in series [5], the CC50 is more than 100 µM. The same compound yielded an inhibition constant (Ki) at ICE [3] of 0.3 µM.

As to `Cc1ccc(Oc2ccccc2)c(S(=O)(=O)NC(C=O)CC(=O)O)c1` (stereo not shown) [Example 44, 3-(5-Methyl-2-Phenoxy-Benzenesulfonylamino)-4-Oxo-Butyric Acid], the IC50 was more than 100 µM in series [1] (PBMC), 199 µM on Ich-2 (Caspase-4) and 41 µM against ICE [4]. Moreover, the CC50 in series [5] was more than 100 µM. The same compound came in with a Ki on ICE [3] of 2.2 µM.

As to `Cc1ccc(S(=O)(=O)NC(C=O)CC(=O)O)c(Oc2ccccc2)c1` (stereo not shown) [Example 45, 3-(4-Methyl-2-Phenoxy-Benzenesulfonylamino)-4-Oxo-Butyric Acid], the results for the IC50 (in series [1] (PBMC); on Ich-2 (Caspase-4); at ICE [4]) were 70 µM, 14 µM and 1.7 µM, respectively. Also, in series [5], the CC50 was more than 100 µM. Moreover, affinity at ICE [3] was put at a Ki of 18 µM.

The record behind these values is patent US6083981A, “Sulfonamide substituted aspartic acid interleukin-1β converting enzyme inhibitors” (Warner-Lambert Company, priority 1999, dated 2000).
